How the values were obtained:
Type in all cases: cell-based, mouse
[1] = test system: 806-mCD28z-CAR-T cells; test: CCK8 proliferation assay, olaparib on CAR-T cells
Protocol: (§1) As an effective inhibitor of PARP1, olaparib may inhibit PARP1 to participate in DNA damage repair process. In mouse breast cancer cell lines and mouse T cells and CART cells, different levels of PARP1 expression are detected (FIG. 2B). Therefore, CCK8 proliferation assay is required to detect the effect of olaparib on proliferation of tumor cells and CART cells.
(§2) 806-m28Z CAR-T cells in Example 1 are taken to spread in a 96-well plate with 1×10^4 cells per well and 100 μl medium. Breast cancer cells E0771-EGFRvIII and 4T1-EGFRvIII are taken to spread in a 96-well plate with 1×10^4 cells per well and 100 μl medium. Different concentrations of olaparib are taken to add to the cells to make 10 concentration gradients (i.e., the treatment concentrations of olaparib are respectively 50 μM, 20 μM, 10 μM, 5 μM, 2.5 μM, 1 μM, 0.1 μM, 0.01 μM, 0.001 μM, 0 μg/ml). After 48 hours of drug treatment for cells of different groups, 10 μl of CCK8 substrate color reagent (Dojindo) is added to each well; after incubating for 1 hour at 37° C., the absorbance at 450 nm is measured by a microplate reader, calculating the cell viability respectively.
(§3) The formula for calculating the cell viability is as follows:
(§4) Cell viability (%)=[A (adding drug)−A (blank)]/[A (without adding drug)−A (blank)]

[2] = test system: E0771-EGFRvIII cells; test: CCK8 proliferation assay, olaparib on E0771-EGFRvIII breast cancer cells
From the text: Since the EGFR287-302 epitope is only exposed in EGFRvIII or tumors overexpressing EGFR, this epitope is hidden in normal tissues (Gan H K et al., Targeting of a conformationally exposed, tumor-specific epitope of EGFR as a strategy for cancer therapy. Cancer Res. 2012, 72(12):2924-2930), conventional methods in molecular biology are used to establish E0771, 4T1 mouse breast cancer cell models (E0771-EGFRvIII, 4T1-EGFRvIII) that overexpress mouse EGFR inserted with amino acid epitope at positions 287-302 of human EGFR. Subsequent research is performed to screen EGFRvIII target-positive cells by cell flow cytometry (FIG. 2A). E0771, 4T1 cells are purchased from the American Type Culture Collection (ATCC).
as §1, §2, §3, §4

[3] = test system: E0771-EGFRvIII cells; test: LDH cytotoxicity assay, CAR-T killing of olaparib-treated E0771-EGFRvIII cells
Protocol: The experimental groups for incubating with cells that are positive for the antigen target comprises the following 4 groups: UTD group, 806-mCD28z-CAR-T group (or denoted as 806-28Z), olaparib pretreatment group, and olaparib combined treatment group;
the olaparib pretreatment group comprises: UTD+1 μM olaparib pretreatment group (or denoted as UTD+Olaparib 1 μM pretreatment), UTD+5 μM olaparib pretreatment group (or denoted as UTD+Olaparib 5 μM pretreatment), 806-mCD28z-CAR-T+1 μM olaparib pretreatment group (or denoted as 806-28Z+Olaparib 1 μM pretreatment). 806-mCD28z-CAR-T+5 μM olaparib pretreatment group (or denoted as 806-28Z+Olaparib 5 μM pretreatment); […]
Olaparib pretreatment group: different concentrations of olaparib (1 μM, 5 μM) are added to the medium for culturing E0771-EGFRVIII or 4T1-EGFRvIII tumor cells respectively, culturing at 37° C. for 24 h, and then the cells are treated with trypsin and resuspended in fresh medium. The untreated mouse T cells and 806-mCD28z-CAR T cells in Example 1 are respectively taken to incubate with E0771-EGFRvIII or 4T1-EGFRVIII cells pretreated with different concentrations of olaparib at a ratio of 1:3, 1:1, and 3:1; 16 hours later, the secretion of LDH in the supernatant is detected by Cytox 96 Non-Radioactive Cytotoxicity Assay, then calculating the killing toxicity of 806-mCD28z CAR T cells to tumor cells pretreated with different concentrations of olaparib. […] Cytox 96 Non-Radioactive Cytotoxicity Assay (Promaga, REF: G1782); at the same time, the secretions of cytokines Granzyme B, IFN-γ, and IL-2 in the supernatant are detected by ELISA kit (Lianke Biotech Co. Ltd. CAT: 18^.22), for specific experimental procedures, referring to instructions of MouseGranzyme B, IFN-γ, IL-2 ELISA kit from Lianke Biotech Co, Ltd. […]

[4] = test system: cytokines Granzyme B, IFN-γ, and IL-2; test: ELISA of cytokines in supernatant of co-cultured 4T1-EGFRvIII cells and CAR-T cells; conditions: 4T1-EGFRvIII co-culture with CAR-T cells, olaparib groups
Protocol: Olaparib pretreatment group: different concentrations of olaparib (1 μM, 5 μM) are added to the medium for culturing E0771-EGFRVIII or 4T1-EGFRvIII tumor cells respectively, culturing at 37° C. for 24 h, and then the cells are treated with trypsin and resuspended in fresh medium. The untreated mouse T cells and 806-mCD28z-CAR T cells in Example 1 are respectively taken to incubate with E0771-EGFRvIII or 4T1-EGFRVIII cells pretreated with different concentrations of olaparib at a ratio of 1:3, 1:1, and 3:1; 16 hours later, the secretion of LDH in the supernatant is detected by Cytox 96 Non-Radioactive Cytotoxicity Assay, then calculating the killing toxicity of 806-mCD28z CAR T cells to tumor cells pretreated with different concentrations of olaparib. For specific detection steps and calculation methods, see the instructions of Promaga. Cytox 96 Non-Radioactive Cytotoxicity Assay (Promaga, REF: G1782); at the same time, the secretions of cytokines Granzyme B, IFN-γ, and IL-2 in the supernatant are detected by ELISA kit (Lianke Biotech Co. Ltd. CAT: 18^.22), for specific experimental procedures, referring to instructions of MouseGranzyme B, IFN-γ, IL-2 ELISA kit from Lianke Biotech Co, Ltd. […]

SMILES: O=C(c1cc(Cc2n[nH]c(=O)c3ccccc23)ccc1F)N1CCN(C(=O)C2CC2)CC1 [olaparib]
- proliferation of 806-mCD28z-CAR-T cells ([1]; 1 μM olaparib): not affected
- inhibition rate of proliferation of 806-mCD28z-CAR-T cells ([1]; 2.5 μM and higher concentration of olaparib, 48 hours, CCK8): ~80%
- concentration that may inhibit the growth of CAR-T cells ([1]; in vitro): higher than 2.5 μM
- proliferation of 806-mCD28z-CAR-T cells ([1]; olaparib): inhibited
- inhibition rate of proliferation of E0771-EGFRVIII cell line ([2]; 1 μM and higher concentration of olaparib, 48 hours, CCK8): 65%-90%
- proliferation of E0771-EGFRVIII cells ([2]; 1 μM olaparib): inhibited
- concentration that may inhibit the growth of tumor cells ([2]; in vitro, tumor cells not specified further): higher than 104
- proliferation of E0771-EGFRVIIII cells ([2]; olaparib): inhibited
- lethal effect on E0771-EGFRvIII cells compared with the CAR-T single treatment group ([3]; 5 μM olaparib combined treatment group): higher synergistic lethal effect
- promotion of the killing effect of CAR-T cells on E0771-EGFRvIII cells ([3]; 5 μM olaparib pretreatment group, better than 5 μM combined treatment group): most significant
- killing effect of CAR-T cells on E0771-EGFRvIII cells ([3]; olaparib 1 μM or 5 μM, pretreatment or combined treatment, vs CAR-T alone, ratio 1:3, 1:1, 3:1, 16 hours, LDH): significantly improved
- level of cytokine in the supernatant [4]: not increased

— patent US20230158071A1, “TUMOR COMBINED IMMUNOTHERAPY” (CRAGE medical Co., Limited, priority 2018, published 2023)
